Measured values: US7432260B2, “Pyrimidine compounds” (Cyclacel Limted, priority 2002, dated 2008)

What was measured:
H1299 = assay: 72-h MTT cytotoxicity assay H1299; assay type: cell-based; details: Homo sapiens, NCI-H1299, 72 h; Table 5; Lung
Description: (§1) MTT cytotoxicity assay. […] Standard 72-h MTT (thiazolyl blue; 3-[4,5-dimethylthiazol-2-yl]-2,5-diphenyltetrazolium bromide) assays were performed (Haselsberger, K.; Peterson, D. C.; Thomas, D. G.; Darling, J. L. Anti Cancer Drugs 1996, 7, 331-8; Loveland, B. E.; Johns, T. G.; Mackay, I. R.; Vaillant, F.; Wang, Z. X.; Hertzog, P. J. Biochemistry International 1992, 27, 501-10). In short: cells were seeded into 96-well plates according to doubling time and incubated overnight at 37° C. Test compounds were made up in DMSO and a 1/3 dilution series prepared in 100 μL cell media, added to cells (in triplicates) and incubated for 72 ho at 37° C. MTT was made up as a stock of 5 mg/mL in cell media and filter-sterilised. Media was removed from cells followed by a wash with 200 μL PBS.
(§2) MTT solution was then added at 20 μL per well and incubated in the dark at 37° C. for 4 h. MTT solution was removed and cells again washed with 200 μL PBS. MTT dye was solubilised with 200 μL per well of DMSO with agitation.

SKUT-1 = assay: 72-h MTT cytotoxicity assay SKUT-1; assay type: cell-based; details: Homo sapiens, SK-UT-1, 72 h; Table 5; Leiomyosarcoma
Description: as §1, §2

K562 = assay: 72-h MTT cytotoxicity assay K562; assay type: cell-based; details: Homo sapiens, K562, 72 h; Table 5; Chronic myelogenous leukaemia
Description: as §1, §2

U2OS = assay: 72-h MTT cytotoxicity assay U2OS; assay type: cell-based; details: Homo sapiens, Table 5, Bone osteosarcoma
Description: as §1, §2

SK-N-MC = assay: 72-h MTT cytotoxicity assay SK-N-MC; assay type: cell-based; details: Homo sapiens, Table 5, Neuroblastoma
Description: as §1, §2

Lovo = assay: 72-h MTT cytotoxicity assay Lovo; assay type: cell-based; details: Homo sapiens, Table 5, Colon
Description: as §1, §2

[1] = system: HIV-1 (clinical paediatric strain RoJo or WeJo) in human PBMCs; assay: Anti-HIV efficacy evaluation in fresh human PBMCs; assay type: cell-based; details: for IC50 / IC90: Human immunodeficiency virus 1, PBMC, 168 h, seven days following infection; for IC50: concentration inhibiting virus replication by 50%; for IC90: concentration inhibiting virus replication by 90%
Description: Representative compounds of the present invention were tested for antiviral activity against HIV-1 in human peripheral blood mononuclear cells (PBMCs) using the clinical paediatric HIV strain RoJo or WeJo. PBMCs were cultured under conditions which promote cell survival and HIV replication. Antiviral activity was tested for from 6-9 log10 serial dilutions of a 100 μM compound stock solution in DMSO.
Fresh PBMCs, seronegative for HIV and HBV, were isolated from screened donors (Interstate Blood Bank, Inc. Memphis, Term.). Cells were pelleted/washed 2-3 times by low speed centrifugation and re-suspension in PBS to remove contaminating platelets. […] Banded PBMCs were gently aspirated from the resulting interface and subsequently washed with PBS by low speed centrifugation. After the final wash, cells were enumerated by trypan blue exclusion and re-suspended in RPMI 1640 supplemented with fetal bovine serum (FBS), and L-glutamine, Phytohemagglutinin (PHA-P, Sigma). The cells were allowed to incubate at 37° C. After incubation, PBMCs were centrifuged and resuspended in RPMI 1640 with FBS, L-glutamine, penicillin, streptomycin, gentamycin, and recombinant human IL-2 (R&D Systems, Inc). IL-2 is included in the culture medium to maintain the cell division initiated by the PHA mitogenic stimulation. PBMCs were maintained in this with bi-weekly medium changes until used in the assay protocol. Cells were kept in culture for a maximum of two weeks before being deemed too old for use in assays and discarded. Monocytes were depleted from the culture as the result of adherence to the tissue culture flask.
For the standard PBMC assay, PHA-P stimulated cells from at least two normal donors were pooled, diluted and plated in the interior wells of a 96-well round bottom microplate. Pooling of mononuclear cells from more than one donor was used to minimise the variability observed between individual donors, which results from quantitative and qualitative differences in HIV infection and overall response to the PHA and IL-2 of primary lymphocyte populations. Each plate contained virus/cell control wells (cells plus virus), experimental wells (drug plus cells plus virus) and compound control wells (drug plus media […], necessary for MTS monitoring of cytotoxicity). Since HIV-1 is not cytopathic to PBMCs, this allows the use of the same assay plate for both antiviral activity and cytotoxicity measurements. Test drug dilutions were prepared in microtiter tubes and each concentration was placed in appropriate wells using the standard format. A predetermined dilution of virus stock was placed in each test well (final MOI≅0.1). The PBMC cultures were maintained for seven days following infection at 37° C., 5% CO2. After this period, cell-free supernatant samples were collected for analysis of reverse transcriptase activity and/or HIV p24 content. Following removal of supernatant samples, compound cytotoxicity was measured by addition of MTS to the plates for determination of cell viability. Wells were also examined microscopically and any abnormalities were noted.
Reverse transcriptase activity assay: A microtiter plate-based reverse transcriptase (RT) reaction was utilised (Buckheit et al., AIDS Research and Human Retroviruses 7:295-302, 1991). Tritiated thymidine triphosphate (^3H-TTP, 80 Ci/mmol, NEN) was received in 1:1 dH2O:Ethanol at 1 mCi/mL. Poly rA:oligo dT template:primer (Pharmacia) was prepared as a stock solution, followed by aliquoting and storage at −20° C. The RT reaction buffer was prepared fresh on a daily basis. The final reaction mixture was prepared by combining ^3H-TTP, dH2O, poly rA:oligo dT stock and reaction buffer. This reaction mixture was placed in a round bottom microtiter plate and supernatant containing virus was added and mixed. The plate was incubated at 37° C. for 60 minutes. Following incubation, the reaction volume was spotted onto DE81 filter-mats (Wallac), in a sodium phosphate buffer or 2×SSC (Life Technologies). […]

[2] = target: p70 ribosomal protein S6 kinase (Homo sapiens, UniProt P23443); assay: Kinase assay p70/S6; assay type: biochemical; details: Table 3 selectivity panel; read-out: Kinase specificity IC50 p70/S6
Description: Kinase assays. […] This was achieved by measurement of incorporation of radioactive phosphate from ATP into appropriate polypeptide substrates. Recombinant protein kinases and kinase complexes were produced or obtained commercially. Assays were performed using 96-well plates and appropriate assay buffers (typically 25 mM β-glycerophosphate, 20 mM MOPS, 5 mM EGTA, 1 mM DTT, 1 mM […], pH 7.4), into which were added 2-4 μg of active enzyme with appropriate substrates. The reactions were initiated by addition of Mg/ATP mix (15 mM MgCl2+100 μM ATP with 30-50 kBq per well of [γ-^32P]-ATP) and mixtures incubated as required at 30° C. Reactions were stopped on ice, followed by filtration through p81 filterplates or GF/C filterplates (Whatman Polyfiltronics, Kent, UK). After washing 3 times with 75 mM aq orthophosphoric acid, plates were dried, scintillant added and incorporated radioactivity measured in a scintillation counter (TopCount, Packard Instruments, Pangbourne, Berks, UK). Compounds for kinase assay were made-up as 10 mM stocks in DMSO and diluted into 10% DMSO inrassay buffer.

Chain of p70 ribosomal protein S6 kinase (P23443 91-352 limits assumed): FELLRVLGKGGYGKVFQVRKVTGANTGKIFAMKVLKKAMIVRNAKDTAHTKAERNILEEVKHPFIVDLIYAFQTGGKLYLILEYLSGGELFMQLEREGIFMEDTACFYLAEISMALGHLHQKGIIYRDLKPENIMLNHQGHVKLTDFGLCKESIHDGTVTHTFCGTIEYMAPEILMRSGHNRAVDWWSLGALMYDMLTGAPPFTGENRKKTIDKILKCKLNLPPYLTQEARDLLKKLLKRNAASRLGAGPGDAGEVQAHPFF

Compound	IC50 (H1299) [nM]	IC50 (SKUT-1) [nM]	IC50 (K562) [nM]	IC50 (U2OS) [nM]	IC50 (SK-N-MC) [nM]	IC50 (Lovo) [nM]	anti-viral effect in cell based assays [1]	IC50 [1] [nM]	IC90 [1] [nM]	IC50 [2] [nM]
Cc1nc(N)sc1-c1ccnc(Nc2ccc(N3CCOCC3)cc2)n1 [Compound 1, [4-(2-Amino-4-methyl-thiazol-5-yl)-pyrimidin-2-yl]-(4-morpholin-4-yl-phenyl)-amine]	900	900	3800	2100	300	900	particularly effective anti-viral agent	1330	2640	–
CNc1nc(C)c(-c2ccnc(Nc3ccc(N4CCOCC4)cc3)n2)s1 [Compound 3, [4-(2-N-Methylamino-4-methyl-thiazol-5-yl)-pyrimidin-2-yl]-(4-morpholinophenyl)-amine]	–	–	–	–	–	–	–	297	679	2600
CCNc1nc(C)c(-c2ccnc(Nc3ccc(N4CCOCC4)cc3)n2)s1 [Compound 4, [4-(2-Ethylamino-4-methyl-thiazol-5-yl)-pyrimidin-2-yl]-(4-morpholin-4-yl-phenyl)-amine]	–	–	–	–	–	–	–	166	295	–
CNc1nc(C)c(-c2ccnc(Nc3ccc(N4CCN(Cc5ccccc5)CC4)cc3)n2)s1 [Compound 11, [4-(4-Benzyl-piperazin-1-yl)-phenyl]-[4-(4-methyl-2-methylamino-thiazol-5-yl)-pyrimidin-2-yl]-amine]	1100	800	2100	2300	600	2000	–	–	–	> 100000
Cc1nc(NC(=O)[C@H](N)[C@@H](C)O)sc1-c1ccnc(Nc2cccc([N+](=O)[O-])c2)n1 [Compound 15, (2R,3R)-2-Amino-3-hydroxy-N-{4-methyl-5-[2-(3-nitro-phenylamino)-pyrimidin-4-yl]-thiazol-2-yl}-butyramide]	1300	900	4600	1020	500	700	–	124	385	> 100000
CC[C@@H](N)C(=O)Nc1nc(C)c(-c2ccnc(Nc3cccc([N+](=O)[O-])c3)n2)s1 [Compound 16, (2R)-2-Amino-N-{4-methyl-5-[2-(3-nitro-phenylamino)-pyrimidin-4-yl]-thiazol-2-yl}-butyramide]	600	200	2500	480	400	300	–	–	–	8000
Cc1nc(C)c(-c2ccnc(Nc3ccc(NC(=O)CN4CCCC4)cc3)n2)s1 [Compound 53, N-{4-[4-(2,4-Dimethyl-thiazol-5-yl)-pyrimidin-2-ylamino]-phenyl}-2-pyrrolidin-1-yl-acetamide]	–	–	–	–	–	–	–	812	871	–
